# Test results as given in US20250120988A1, “SMALL MOLECULE COMPOUND FOR TREATING ISCHEMIC STROKE, ITS PREPARATION METHOD, AND APPLICATION” (SHANGHAI SIXTH PEOPLE'S HOSPITAL, priority 2023, published 2025).
# How the values were obtained:
# MCAO model = experiment: MCAO cerebral ischemia model, rotarod motor function test; type: in vivo, mice; conditions: 30 mg/kg, seven days after brain injury
# Procedure: Figure a illustrates the experimental process, where drug intervention (using a concentration of 30 mg/kg of LK-2) was conducted 30 minutes after modeling, and the first brain function test (rotarod test) was performed 24 hours after modeling. The second brain function test was conducted 7 days later, with 5 training tests followed by 1 formal test in each rotarod test. Figure b illustrates the time taken for mice to fall off the rotarod during the 5 training tests, where longer time indicates better motor function. […] Figure c illustrates the analysis results of motor ability in the formal test conducted 24 hours and 7 days after modeling for each group of mice. • 3.4 The animal model of cerebral ischemic stroke, known as the middle cerebral artery occlusion (MCAO) model, is a classic model used to simulate individual patients with ischemic stroke, and evaluate the size of cerebral infarction and motor function (evaluate through the rotarod test, including assessment of motor learning and coordination, the experimental design process is illustrated in FIG. 8a) in model animals after drug intervention. The specific steps are as follows: a transient focal ischemic model was formed by occluding the middle cerebral artery for 30 minutes in wild-type or ASIC1a gene knockout mice. […] In this test, mice were placed on the rotating rod and the time to fall was recorded. […]
# [1] = system: CHO cells transfected with ASIC1a; experiment: PI cell death staining of ASIC1a-transfected CHO cells treated with glutamate at pH 7; type: cell-based, Chinese hamster; conditions: 10 μM; 500 μM glutamate, pH 7, 1 hour
# Procedure: Figure a illustrates cortical neurons staining from wild-type (ASIC1a+/+) and gene-deficient (ASIC1a−/−) mice primary cultures in the calcein-PI staining experiment. Blue green represents viable cells, and red represents dead cell nuclei. 10 μM CGS19755 and 10 μM LK-2 were added respectively in the cell culture medium under pH 7.0 conditions with OGD to be treated for 1 hour. Figure c illustrates, after being treated in the same experimental groups as Figure a, the analysis of each group of LDH of relative release levels. Figure d illustrates PI staining of ASIC1a-transfected CHO cells after 1 hour of treatment with pH 7.0 and 500 μM glutamate (Glu). […]
# Taking into consideration that in addition to ASIC1a, neurons also express multiple membrane proteins that can be activated and lead to cell death during OGD, in order to more accurately verify that cell death is caused by glutamate activation of ASIC1a and that LK-2 indeed competitively antagonizes the glutamate so as to reduce cell death, we conducted the following experiment: CHO cells transfected with ASIC1a-GFP were divided into a control group (500 μM glutamate) and a drug intervention group (500 μM glutamate+10 μM LK-2). […] Live and dead cell nuclei were determined by observing under a 40× objective using excitation wavelengths of 488 nm and 546 nm. The number of stained cell nuclei was counted using Image-J software.
smiles,measurement,setting,value
O=C(O)C1CN(C(c2ccccc2)P(=O)(O)O)CCN1 (stereo not drawn) [LK-2],motor learning ability,MCAO model; rotarod training tests,significant improvement
same,overall improvement in motor function,MCAO model; rotarod,51.6%
same,reduction of death rate of transfected cells,[1],40%
